From paper PMC12434071, “Platinum-group metal half-sandwich complexes of 1-(α-D-glucopyranosyl)-4-hetaryl-1,2,3-triazoles: synthesis, solution equilibrium studies, and investigation of their anticancer and antimicrobial activities” (Frontiers in Chemistry, 2025)

Tests used:
A2780 cells = test: MTT reduction assay on A2780 cells; format: cell-based; conditions: maximal inhibition; 4 h treatment; maximum concentration 100 µM
Experimental: For MTT assays, 4 × 10^3 A2780 cells were plated into 96-well plates, and for SRB assays, 1.5 × 10^3 A2780 cells were plated into 96-well plates. Cells were treated with the compounds in the concentrations indicated for either 4 h for an MTT assay or for 48 h for an SRB assay. Data are represented as average ± SD, from four biological replicates, with the exception of the MTT dataset of Ir-2b and the SRB datasets of 2b, Ru/Ir-2b, and Ir-3a, which were derived from three biological replicates. Individual assays were performed in duplicate. Values were normalized for vehicle-treated cells, and the absorbance for vehicle-treated cells equals 1. Data are represented as fold change compared to vehicle-treated controls. Normality was assessed using the D'Agostino-Pearson test. Statistical significance was assessed using a two-way ANOVA test followed by Tukey's post hoc test. For better visibility, normality, transformations, statistical tests, and p values are presented in an MS Excel sheet at https://figshare.com/s/3a0aa60b66f3f746f41e. Color code: black-free ligand (2a,b or 3a), khaki-ruthenium complex (Ru-2a,b or Ru-3a), green-iridium complex (Ir-2a,b or Ir-3a).  FIGURE 5 The ruthenium, osmium, and iridium complexes of ligands 4a, 4b, and 5a decrease MTT reduction. For MTT assays, 4 × 10^3 A2780 cells, 3 × 10^3 ID8 cells, or 6 × 10^3 human primary fibroblasts were plated into 96-well plates. Cells were treated with the compounds in the concentrations indicated for 4 h. Data are represented as average ± SD, from four biological replicates on A2780, and from three biological replicates on ID8 and human primary fibroblasts. For the datasets of 5a and Os-5a on human primary fibroblasts, the data represent four biological replicates. Individual assays were performed in duplicate. Values were normalized for vehicle-treated cells, and the absorbance for vehicle-treated cells equals 1. Normality was assessed using the D'Agostino-Pearson test. Statistical significance was assessed using a two-way ANOVA test followed by Tukey's post hoc test. For better visibility, normality, transformations, statistical tests, and p values are presented in an MS Excel sheet at https://figshare.com/s/3a0aa60b66f3f746f41e. Color code: black-free ligand (4a,b or 5a), khaki-ruthenium complex (Ru-4a,b), green-iridium complex (Ir-4a,b), blue-osmium complex (Os-4a,b or Os-5a), and red-rhodium complex (Rh-4a,b). An MTT reduction assay measures the activity of mitochondrial complex I and can be used to detect toxicity ([[…] et al., 2016]). The assay was performed in a manner similar to that described by [[…] et al. (2023b)]. Briefly, cells were plated into 96-well plates the day before the assay. Cells were treated with the compounds for 4 h; then, MTT was added to a 0.5 mg/mL final concentration, and cells were incubated at 37°C in a cell incubator for 40-60 min, as a function of the cell line being assessed. The culture medium was removed, the reduced MTT dye was dissolved in dimethylsulfoxide, and plates were measured in a plate photometer (Thermo Scientific Multiscan GO spectrophotometer, Waltham, MA, United States) at 540 nm. Certain wells were designated to contain vehicle-treated cells on each plate. In calculations, the readings for these wells were considered to 1, and all readings were expressed relative to these values. Statistical analysis was performed using version 8.0.1 of GraphPad Prism. Values were tested for normal distribution using the D'Agostino-Pearson or Shapiro-Wilk normality tests. When necessary, values were log-normalized or normalized using the Box-Cox or two-step normalization method ([Box and Cox, 1964]), as indicated in the MS Excel file listing the values at https://figshare.com/s/3a0aa60b66f3f746f41e. The following statistical test, post hoc test, and the level of significance are indicated in the MS Excel file listing the values at https://figshare.com/s/3a0aa60b66f3f746f41e. […]

ID8 cells = test: SRB assay on ID8 cells; format: cell-based; conditions: maximal inhibition; 48 h treatment; maximum concentration 100 µM
Experimental: FIGURE 7 The ruthenium, osmium, and iridium complexes of ligands 4a, 4b, and 5a are cytostatic on ovarian cancer models with a good therapeutic index. For SRB assays, 1.5 × 10^3 A2780 cells, 1.5 × 10^3 ID8 cells, or 4 × 10^3 primary fibroblasts were plated into 96-well plates. Cells were treated with the compounds in the concentrations indicated for 48 h. Data are represented as average ± SD, from four biological replicates on A2780 and human primary fibroblasts, except in the case of Os complexes, where experiments were performed in three biological replicates. ID8 cells were assessed in three biological replicates. Individual assays were performed in duplicate. Values were normalized for vehicle-treated cells, and the absorbance for vehicle-treated cells equals 1. Normality was assessed using the D’Agostino–Pearson test. Statistical significance was assessed using a two-way ANOVA test followed by Tukey’s post hoc test. For better visibility, normality, transformations, statistical tests, and p values are presented in an MS Excel sheet at https://figshare.com/s/3a0aa60b66f3f746f41e. Color code: black—free ligand (4a,b or 5a), khaki—ruthenium complex (Ru-4a,b), blue—osmium complex (Os-4a,b or Os-5a), green—iridium complex (Ir-4a,b), and red—rhodium complex (Rh-4a,b). An SRB assay measures protein content of cells in correlation with the cell number in an assay well and can therefore be used to assess cell proliferation or long-term cytostasis ([Skehan et al., 1990]). Cells were seeded into 96-well plates the day before the treatment for the assay. Cells were treated with the various compounds for 48 h. Then, the medium was removed, and cells were fixed with 10% trichloroacetic acid. Fixed cells were washed in distilled water three times, followed by staining with SRB (0.4 m/V% dissolved in 1% acetic acid) for 10 min. Stained cells were washed in 1% acetic acid five times; the acetic acid was removed, and the cells were left to dry. […] Plates were measured in a plate photometer (Thermo Scientific Multiscan GO spectrophotometer, Waltham, MA, United States) at 540 nm. […]

| SMILES | A2780 MTT max % (A2780 cells) | ID8 SRB max % (ID8 cells) |
| --- | --- | --- |
| O=C(OC[C@H]1O[C@H](n2cc(-c3ccccn3)nn2)[C@H](OC(=O)c2ccccc2)[C@@H](OC(=O)c2ccccc2)[C@@H]1OC(=O)c1ccccc1)c1ccccc1 [Complex 4a, 1-(2’,3’,4’,6’-Tetra-O-benzoyl-α-D-glucopyranosyl)-4-(pyridin-2-yl)-1,2,3-triazole] | 0% | 0% |
| CCCCC(=O)OC[C@H]1O[C@H](n2cc(-c3ccccn3)nn2)[C@H](OC(=O)CCCC)[C@@H](OC(=O)CCCC)[C@@H]1OC(=O)CCCC [Complex 5a, 1-(2’,3’,4’,6’-Tetra-O-pentanoyl-α-D-glucopyranosyl)-4-(pyridin-2-yl)-1,2,3-triazole] | 0% | 0% |
| OC[C@H]1O[C@H](n2cc(-c3ccccn3)nn2)[C@H](O)[C@@H](O)[C@@H]1O [Complex 3a, 1-(α-D-Glucopyranosyl)-4-(pyridin-2-yl)-1,2,3-triazole] | 0% | – |
| O=C(OC[C@H]1O[C@H](n2cc(-c3ccc4ccccc4n3)nn2)[C@H](OC(=O)c2ccccc2)[C@@H](OC(=O)c2ccccc2)[C@@H]1OC(=O)c1ccccc1)c1ccccc1 [Complex 4b, 1-(2’,3’,4’,6’-Tetra-O-benzoyl-α-D-glucopyranosyl)-4-(quinolin-2-yl)-1,2,3-triazole] | 0% | 0% |
